In article PMC3796444 (PLoS ONE, 2013) one finds Kd data, which are given here for one molecule.

Residue numbers refer to the chain shown, from its start.

Common to all, as to assay: fluorescence equilibrium titration of apo-AGT
What all share (assay type): binding
Conditions in all cases: read-out: K d(PLP) (nM) ^b

For experiment [1], the target named is T1, alanine:glyoxylate aminotransferase (AGT), AGT WT (major allele) (Homo sapiens, UniProt P21549, A368T/I340M/P11L).
T1 construct: gene AGXT; His-tagged full-length AGT from pCOLDII, expressed in E. coli BL21, IMAC and SEC; about 90 kDa dimer
T1 sequence (P21549 1-392 P11L/I340M/A368T): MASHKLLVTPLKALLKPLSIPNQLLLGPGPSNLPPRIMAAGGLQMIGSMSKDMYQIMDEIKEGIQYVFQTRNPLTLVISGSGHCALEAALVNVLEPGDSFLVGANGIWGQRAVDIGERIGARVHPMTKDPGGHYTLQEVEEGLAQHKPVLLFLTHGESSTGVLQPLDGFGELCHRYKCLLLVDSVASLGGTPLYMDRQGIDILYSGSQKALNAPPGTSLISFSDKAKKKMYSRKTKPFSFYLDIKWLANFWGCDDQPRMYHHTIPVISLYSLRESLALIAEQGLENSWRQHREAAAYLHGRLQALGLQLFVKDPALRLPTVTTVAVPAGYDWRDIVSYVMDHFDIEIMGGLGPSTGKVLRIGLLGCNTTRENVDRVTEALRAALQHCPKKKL
From the text: (§1) fluorescence equilibrium titration of apo-AGT on alanine:glyoxylate aminotransferase (AGT), AGT WT (major allele)

For experiment [2], the target named is T2, alanine:glyoxylate aminotransferase (AGT), AGT WT (major allele) (Homo sapiens, UniProt P21549, I340M).
T2 construct: gene AGXT; His-tagged full-length AGT from pCOLDII, expressed in E. coli BL21, IMAC and SEC; about 90 kDa dimer
T2 sequence (P21549 1-392 I340M): T1 sequence (P21549 1-392 P11L/I340M/A368T) with L11P, T368A
Text: as §1

Experiment [3] deals with T3, alanine:glyoxylate aminotransferase (AGT), AGT WT (major allele) (Homo sapiens, UniProt P21549, I340M/P11L).
T3 construct: gene AGXT; His-tagged full-length AGT from pCOLDII, expressed in E. coli BL21, IMAC and SEC; about 90 kDa dimer
T3 sequence (P21549 1-392 P11L/I340M): T1 sequence (P21549 1-392 P11L/I340M/A368T) with T368A
Text: as §1

In experiment [4] the target is T4, alanine:glyoxylate aminotransferase (AGT), AGT WT (major allele) (Homo sapiens, UniProt P21549, A295T/I340M/P11L).
T4 construct: gene AGXT; His-tagged full-length AGT from pCOLDII, expressed in E. coli BL21, IMAC and SEC; about 90 kDa dimer
T4 sequence (P21549 1-392 P11L/A295T/I340M): T1 sequence (P21549 1-392 P11L/I340M/A368T) with A295T, T368A
Text: as §1

The target of experiment [5] is T5, alanine:glyoxylate aminotransferase (AGT), AGT WT (major allele) (Homo sapiens, UniProt P21549, I340M/P11L/R197Q).
T5 construct: gene AGXT; His-tagged full-length AGT from pCOLDII, expressed in E. coli BL21, IMAC and SEC; about 90 kDa dimer
T5 sequence (P21549 1-392 P11L/R197Q/I340M): T1 sequence (P21549 1-392 P11L/I340M/A368T) with R197Q, T368A
Text: as §1

The target in experiment [6] is T6, alanine:glyoxylate aminotransferase (AGT), AGT WT (major allele) (Homo sapiens, UniProt P21549).
T6 construct: gene AGXT; His-tagged full-length AGT from pCOLDII, expressed in E. coli BL21, IMAC and SEC; about 90 kDa dimer
T6 sequence (P21549 1-392): T1 sequence (P21549 1-392 P11L/I340M/A368T) with L11P, M340I, T368A
Text: as §1

For `Cc1ncc(COP(=O)(O)O)c(C=O)c1O` [PLP], the Kd in experiment [1] was determined as 134 ± 26 nM; in experiment [2], 172 ± 42 nM; in experiment [3], 157 ± 15 nM; in experiment [4], 71 ± 16 nM; in experiment [5], 156 ± 34 nM; in experiment [6] it was 100 ± 30 nM.
